{"source": "paper PMC5342526", "about": "“Identification of Bisindolylmaleimide IX as a potential agent to treat drug-resistant BCR-ABL positive leukemia” (Oncotarget, 2016)", "key": {"Aurora A": {"target": "T1, Aurora A (Homo sapiens, UniProt O14965)", "T1 construct": "made in house; host or cells: Escherichia coli BL21-Codon Plus (DE3)", "test": "Z'-LYTE in vitro kinase assay", "format": "biochemical", "settings": "mean ±SEM", "experimental": "(§1) The recombinant Auror, B-Raf, IKKβ, SYK, BCR-Abl, MEK1 and Erk1 proteins were expressed in Escherichia coli strain BL21-Codon Plus (DE3), purified by Ni-NTA Agarose (QIAGEN). The kinase assays were carried out with the Z'-LYTETM Kinase Assay kit using Ser/Thr3 Peptide substrate (Invitrogen). The reactions were carried out according to the Z-LYTE protocol and the results were read on an EnVision plate reader. All reactions were carried out in triplicate. Data were expressed as mean ±SEM."}, "BCR-ABL": {"target": "BCR-ABL (Homo sapiens, UniProt P00519)", "sequence (P00519 27-1130)": "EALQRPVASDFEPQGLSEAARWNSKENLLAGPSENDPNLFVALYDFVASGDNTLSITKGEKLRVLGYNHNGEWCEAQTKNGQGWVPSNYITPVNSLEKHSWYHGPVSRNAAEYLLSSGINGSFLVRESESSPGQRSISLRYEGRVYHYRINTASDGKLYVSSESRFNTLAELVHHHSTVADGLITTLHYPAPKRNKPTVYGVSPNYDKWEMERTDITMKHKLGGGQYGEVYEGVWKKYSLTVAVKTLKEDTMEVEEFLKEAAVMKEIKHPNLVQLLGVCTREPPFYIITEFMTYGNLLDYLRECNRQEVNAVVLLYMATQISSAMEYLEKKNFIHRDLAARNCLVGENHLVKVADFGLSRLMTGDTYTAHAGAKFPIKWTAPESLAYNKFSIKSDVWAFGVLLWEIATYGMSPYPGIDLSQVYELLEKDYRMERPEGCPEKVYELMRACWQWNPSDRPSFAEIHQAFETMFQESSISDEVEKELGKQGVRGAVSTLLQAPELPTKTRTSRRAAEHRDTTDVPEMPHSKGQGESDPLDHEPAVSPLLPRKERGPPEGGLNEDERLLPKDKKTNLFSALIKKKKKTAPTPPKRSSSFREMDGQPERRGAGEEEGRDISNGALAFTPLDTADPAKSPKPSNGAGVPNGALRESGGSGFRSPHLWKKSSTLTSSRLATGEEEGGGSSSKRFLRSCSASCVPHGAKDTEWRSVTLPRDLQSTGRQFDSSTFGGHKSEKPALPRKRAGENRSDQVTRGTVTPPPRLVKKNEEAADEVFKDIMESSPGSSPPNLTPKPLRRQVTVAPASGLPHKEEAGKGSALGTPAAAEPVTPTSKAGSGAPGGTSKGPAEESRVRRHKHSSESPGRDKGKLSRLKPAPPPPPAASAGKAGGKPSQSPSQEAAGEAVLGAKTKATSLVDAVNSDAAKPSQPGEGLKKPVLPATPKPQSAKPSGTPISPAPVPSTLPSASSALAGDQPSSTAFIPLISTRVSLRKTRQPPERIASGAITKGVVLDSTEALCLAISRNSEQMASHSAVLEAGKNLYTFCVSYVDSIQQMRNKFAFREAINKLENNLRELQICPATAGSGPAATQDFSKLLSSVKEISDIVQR", "sequence (P11274 1-927 partner)": "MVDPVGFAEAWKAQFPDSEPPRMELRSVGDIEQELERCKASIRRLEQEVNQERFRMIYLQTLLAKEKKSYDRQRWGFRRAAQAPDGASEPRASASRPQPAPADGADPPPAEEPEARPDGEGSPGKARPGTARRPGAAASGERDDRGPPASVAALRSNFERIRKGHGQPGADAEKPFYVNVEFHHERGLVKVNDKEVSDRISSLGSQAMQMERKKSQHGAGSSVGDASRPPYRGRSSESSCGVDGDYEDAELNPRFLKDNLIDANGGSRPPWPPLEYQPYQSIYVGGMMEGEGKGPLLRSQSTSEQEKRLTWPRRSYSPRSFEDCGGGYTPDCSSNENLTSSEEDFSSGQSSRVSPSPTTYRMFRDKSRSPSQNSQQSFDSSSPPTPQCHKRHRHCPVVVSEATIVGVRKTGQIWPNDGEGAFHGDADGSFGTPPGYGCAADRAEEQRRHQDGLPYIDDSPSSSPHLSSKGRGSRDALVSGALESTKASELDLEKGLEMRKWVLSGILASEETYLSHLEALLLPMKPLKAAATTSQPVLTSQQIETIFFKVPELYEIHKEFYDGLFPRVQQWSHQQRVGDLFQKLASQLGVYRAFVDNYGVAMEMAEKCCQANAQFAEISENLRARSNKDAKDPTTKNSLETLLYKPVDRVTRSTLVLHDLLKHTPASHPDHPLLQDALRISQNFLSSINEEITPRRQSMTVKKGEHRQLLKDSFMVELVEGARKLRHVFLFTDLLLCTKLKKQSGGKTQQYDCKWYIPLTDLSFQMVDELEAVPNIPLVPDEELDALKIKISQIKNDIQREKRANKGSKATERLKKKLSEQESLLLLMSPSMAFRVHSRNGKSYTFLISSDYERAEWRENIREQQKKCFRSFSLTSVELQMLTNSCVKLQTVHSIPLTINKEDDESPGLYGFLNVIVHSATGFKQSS", "test": "Z'-LYTE in vitro kinase assay", "format": "biochemical", "experimental": "as §1"}, "ERK1": {"target": "T2, ERK1 (Homo sapiens, UniProt P27361)", "T2 construct": "made in house; host or cells: Escherichia coli BL21-Codon Plus (DE3)", "test": "Z'-LYTE in vitro kinase assay", "format": "biochemical", "experimental": "as §1"}, "B-Raf": {"target": "T3, B-Raf (Homo sapiens, UniProt P15056)", "T3 construct": "made in house; host or cells: Escherichia coli BL21-Codon Plus (DE3)", "test": "Z'-LYTE in vitro kinase assay", "format": "biochemical", "settings": "mean ±SEM", "experimental": "as §1"}, "SYK": {"target": "T4, SYK (Homo sapiens, UniProt P43405)", "T4 construct": "made in house; host or cells: Escherichia coli BL21-Codon Plus (DE3)", "test": "Z'-LYTE in vitro kinase assay", "format": "biochemical", "experimental": "as §1"}, "HCT116 cells": {"test_system": "HCT116 cells", "test": "Wst-1 cell survival assay", "settings": "HCT116, compared to other genotoxic drugs such as Itu"}, "[1]": {"test_system": "tumors derived from BCR-ABL-expressing BaF3 cells", "test": "Subcutaneous solid tumor model in nude mice", "format": "in vivo, mouse", "settings": "4 mg/kg", "experimental": "(§2) For solid tumor models, the mice were injected with 4 mg / kg of Bisindolylmaleimide IX or solvent. The length (L) and width (W) of the tumor were measured by a digital caliper and expressed as tumor volume (0.5 L×W^2, mm^3). The body weight and the lifespan of the mice with intravenous injection of BaF3 cells were monitored every day. For B-Raf knockdown, lentivirus-mediated expressing shRNA against B-Raf was used."}, "[2]": {"test_system": "tumors derived from T315I BCR-ABL-expressing BaF3 cells", "test": "Subcutaneous solid tumor model in nude mice", "format": "in vivo, mouse", "settings": "4 mg/kg", "experimental": "as §2"}, "p53 in HCT116 cells": {"test_system": "p53 in HCT116 cells", "test": "p53 protein level by western blot", "format": "cell-based, human", "settings": "HCT116, 2.5 μM, time-dependent"}, "DNA topoisomerase": {"test_system": "DNA topoisomerase", "test": "in vitro DNA relaxation reaction with BaF3 cell lysates", "format": "biochemical, murine", "settings": "0, 2, 4 or 8 μM, pBluescript", "experimental": "Figure 1 Identification of Bisindolylmaleimide IX as a genotoxic agent and a topoisomerase inhibitor A. The structures of Bisindolylmaleimide IX. B. Bisindolylmaleimide IX induced p53 expression in MEFs and HCT116 cells. Upper panel: primary MEFs were treated with 2.5 μM Bisindolylmaleimide IX for different periods of time and the cells were collected. The levels of p53 were determined by western blot. Bottom panel: HCT116 cells were treated with 2.5 μM Bisindolylmaleimide IX for different periods of time and the cells were collected. The levels of p53 were determined by western blot. C. Bisindolylmaleimide IX induced formation of DNA damage foci for γH2AX and p-Atm in MEFs. Primary MEFs were pretreated with caffeine or solvent for 2 hrs and then with 2.5 μM of Bisindolylmaleimide IX, Bisindolylmaleimide I, or Enzastaurin for 4 more hrs. γH2AX and p-Atm were detected with immunofluorescent staining using specific antibodies. D. Bisindolylmaleimide IX inhibited the topoisomerase activity assayed with pBluescript. DNA samples of pBluescript were incubated with cell lysates of MEFs, which were treated with 0, 4 or 8 μM Bisindolylmaleimide IX before being harvested. DNA samples were analyzed on agarose gels. […] DNA samples of pBluescript were incubated with cell lysates of BaF3 in the presence of 0, 2, 4 or 8 μM Bisindolylmaleimide IX. DNA samples were analyzed on agarose gels. […]"}, "Vector BaF3 cells": {"test_system": "Vector BaF3 cells", "test": "Wst-1 cell survival assay", "format": "cell-based, murine", "settings": "Mus musculus, Vector BaF3, 24 hrs", "source_text": "The reference wavelength was 630 nm."}, "[3]": {"test_system": "B-Raf in BCR-ABL positive BaF3 cells", "test": "B-Raf phosphorylation, western blot", "format": "cell-based, murine", "experimental": "Activation and expression of Erk, Mek1, and Raf were determined by western blot. B. Inhibition of Erk decreased the cell survival rates in BaF3 cells expressing BCR-ABL compared to control cells. […] C. […] N=3. Right panel: Western blot results showing that B-Raf was knocked down in these cells."}, "BCR-ABL BaF3 cells": {"test_system": "BCR-ABL BaF3 cells", "settings": "BCR-ABL BaF3, 24 hrs, compared among bisindolylmaleimide derivatives"}, "Vector MEF cells": {"test_system": "Vector MEF cells", "test": "Wst-1 cell survival assay", "settings": "Mus musculus, 24 h, read-out: IC50, cell survival", "quoted_text": "We then evaluated the cytotoxic effect of Bisindolylmaleimide IX in MEFs and HCT116 cells. Different doses of Bisindolylmaleimide IX were applied to the cell cultures and cell survival rates and IC50 were determined with Wst-1 assay.\nTo measure cell survival rates after Bisindolylmaleimide IX treatment, cells were plated at 1×10^4 in 96 well plates and cultured for overnight, which were then treated with Bisindolylmaleimide IX for 48 hrs. Cell proliferation reagent WST-1 (Roche) was added to each well and was further incubated for 4 hrs at 37°C. The absorbance was measured against a control using microplate reader at 440 nm. The reference wavelength was 630 nm."}, "[4]": {"test_system": "tumors derived from HCT116", "test": "HCT116 carcinoma xenograft in nude mice", "format": "in vivo, mouse", "settings": "10 mg/kg for 7 days", "experimental": "Male BALB/cASlac-nude mice (4-week-old) were purchased from Shanghai Slac Laboratory Animal C. LTD. The mice were kept in the SPF mouse facility for 1 week before being inoculated with HCT116 cells. HCT116 cells were harvested by trypsinization, counted and resuspended in PBS at the concentration of 5×10^7/ml. We injected subcutaneously 3×10^6 cells to BALB/cASlac nude mice's back. After 2 weeks, the mice were divided into 3 groups (6 mice per group) and were treated with 5-Iodotubercidin (Itu), Bisindolylmaleimide IX or solvent (PBS). The mice were weighed and the size of tumor measured. The length (L) and width (W) of the tumor were measured with a digital caliper and expressed as tumor volume (0.5L×W^2, mm^3)."}, "MEFs": {"test_system": "MEFs", "test": "Cell cycle analysis by FACS", "format": "cell-based, mouse", "settings": "24 hrs", "experimental": "Cells were seeded on 35-mm dishes and cultured for 24 hrs, reaching 60–70% confluency. The cells were treated with different concentrations of Bisindolylmaleimide IX for 24 or 48 hrs, harvested by trypsinization, resuspended in 200 μl PBS, and fixed in 100% ethanol overnight at 4°C. The fixed cells were pelleted by centrifugation, resuspended in 800 μl PBS containing ribonuclease A (100 μg/ml) and incubated for 30 min at 37°C. Then 10 μl propidium iodide (PI, 4 mg/ml PBS) were added to the samples, which were assessed on a FACSCalibur flow cytometer using Cell Quest software (BD Bioscience)."}}}
{"smiles": "CS(=O)(=O)O.Cn1cc(C2=C(c3cn(CCCSC(=N)N)c4ccccc34)C(=O)NC2=O)c2ccccc21", "note": "[Bisindolylmaleimide IX, 3-[1-[3-(Amidinothio)propyl]-3-indolyl]-4-(1-methyl-3-indolyl)-1H-pyrrole-2,5-dione methanesulfonate]", "values": [{"measurement": "IC50", "setting": "Aurora A", "value": "> 45", "unit": "µM"}, {"measurement": "concentration needed to inhibit BCR-ABL in in vitro kinase assays", "setting": "BCR-ABL", "value": 45, "unit": "µM"}, {"measurement": "IC50", "setting": "BCR-ABL; in vitro kinase assay", "value": "> 45", "unit": "µM"}, {"measurement": "IC50", "setting": "ERK1", "value": "> 45", "unit": "µM"}, {"measurement": "IC50", "setting": "B-Raf", "value": "1.14 ± 0.11", "unit": "µM"}, {"measurement": "IC50", "setting": "SYK", "value": "> 45", "unit": "µM"}, {"measurement": "cytotoxicity (in words)", "setting": "HCT116 cells", "value": "modest cytotoxicity"}, {"measurement": "growth of tumors", "setting": "[1]", "value": "significantly inhibited growth of the tumors"}, {"measurement": "growth of tumors", "setting": "[2]", "value": "significantly inhibited growth of tumors"}, {"measurement": "p53 expression", "setting": "p53 in HCT116 cells", "value": "induce p53 expression"}, {"measurement": "topoisomerase activity on addition to the in vitro DNA relaxation reaction", "setting": "DNA topoisomerase", "value": "inhibit the topoisomerase activity"}, {"measurement": "IC50", "setting": "Vector BaF3 cells", "value": "> 8", "unit": "µM"}, {"measurement": "phosphorylation of B-Raf", "setting": "[3]", "value": "inhibited phosphorylation of B-Raf"}, {"measurement": "cytotoxic effect (in words)", "setting": "BCR-ABL BaF3 cells", "value": "most potent one"}, {"measurement": "IC50", "setting": "Vector MEF cells", "value": 7.37, "unit": "µM"}, {"measurement": "body weights of the mice", "setting": "[4]", "value": "not affected"}, {"measurement": "tumor size", "setting": "[4]", "value": "did not go down"}, {"measurement": "cell cycle profile", "setting": "MEFs", "value": "increase in G2/M phase cells and a decrease in S phase cells"}]}
